Laboratory results from patent US11760750B1, “Process for preparing levoketoconazole” (Nuray Chemicals Private Limited, priority 2022, dated 2023).

Legend:
[1] = Powder flow of crystalline levoketoconazole: bulk density, tapped density, Hausner Ratio, Carr Index (USP <1174>); type: physicochemical
Method: The Hausner Ratio is a value calculated by dividing the tapped density of the levoketoconazole by the freely settled bulk density of the levoketoconazole. The freely settled bulk density is calculated by pouring a known weight of material into a measuring cylinder and recording the volume. The tapped density is calculated by tapping the cylinder against a surface for a specified numbers of times and recording again the new volume.
The Carr (or Compressibility) Index is frequently used in pharmaceutics as an indication of the compressibility of a powder. The Carr Index may be calculated by dividing the difference of the tapped and bulk densities by the tapped density and then multiplying by 100. In a free-flowing powder, the bulk density and tapped density would be close in value; therefore, the Carr Index would be small. On the other hand, in a poor-flowing powder where there are greater interparticle interactions, the difference between the bulk and tapped density observed would be greater, therefore, the Carr Index would be larger.

[2] = Solubility in water; type: physicochemical

Carr Index (Compressibility Index) [1]: below 15
flowability (flow character by Hausner Ratio) [1]: good
bulk density ([1]; 100 g sample, 250 mL graduated cylinder): about 0.576 g/mL
Hausner Ratio ([1]; 500 taps): 1.120
Hausner Ratio ([1]; 1250 taps): 1.18
tapped density ([1]; after 500 taps): about 0.686 g/mL
tapped density ([1]; after 1,250 taps): about 0.681 g/mL
solubility in water [2]: poorly soluble in water
SMILES: CC(=O)N1CCN(c2ccc(OC[C@@H]3CO[C@@](Cn4ccnc4)(c4ccc(Cl)cc4Cl)O3)cc2)CC1 [crystalline levoketoconazole, (2S,4R)-cis-1-acetyl-4-[4-[[2-(2,4-dichlorophenyl)-2-(1H-imidazol-1-ylmethyl)-1,3-dioxolan-4-yl]methoxyl]phenyl] piperazine]
